# Measured values taken from US20240358692A1, “TREATMENT OF SCLERODERMA” (Aisa Pharma, Inc., priority 2023, published 2024).
# Tested on: participants with SSc-RP
# Test: Frequency of weekly RP attacks (all attacks; primary endpoint), patient diary
# Type: in vivo, human
# Details: for Weekly RP Attacks (All Attacks) Change from Baseline, Mean / Weekly RP Attacks (All Attacks) Change from Baseline, Median / Weekly RP Attacks (All Attacks) Percent Change from Baseline, Mean / Weekly RP Attacks (All Attacks) Percent Change from Baseline, Median / Weekly RP Attacks (All Attacks), Mean / Weekly RP Attacks (All Attacks), Median: ITT Part A
# Description: Percent change from baseline evaluation for frequency of weekly RP attacks were or will be used as the primary efficacy variable. The sponsor-developed participant-informed diary will be used to record data. Frequency of weekly RP attacks is defined as the total number of RP attacks divided by the number of days with available diary data within the last 7 days of each dosing period then multiplied by 7. Total number of RP attacks during the last 7 days of screening period divided by the number of days with available data then multiplied by 7 will be used as baseline for the analysis of all periods. The variable will be calculated as follows: […]
# Percent change from baseline evaluation for frequency of weekly RP attacks was and will be the primary efficacy endpoint. Frequency of weekly RP attacks is defined as the total number of RP attacks divided by the number of days with available diary data within the last 7 days of each dosing period then multiplied by 7. Total number of RP attacks during the last 7 days of screening period divided by the number of days with available data then multiplied by 7 will be used as baseline for the analysis of all periods.
# [1] = Cilnidipine 10 mg, Baseline RCS stratum 1 (upper half of table)
# [2] = Cilnidipine 10 mg, Excluding Outliers, Baseline RCS stratum 1 (upper half of table)
# [3] = Cilnidipine 20 mg, Baseline RCS stratum 1 (upper half of table)
# [4] = Cilnidipine 20 mg, Excluding Outliers, Baseline RCS stratum 1 (upper half of table)
# [5] = Pooled Cilnidipine 10 mg and Cilnidipine 10 mg + Tadalafil 5 mg, Baseline RCS stratum 2 (lower half of table)
# [6] = Pooled Cilnidipine 10 mg and Cilnidipine 10 mg + Tadalafil 5 mg, Excluding Outliers, Baseline RCS stratum 1 (upper half of table)
# [7] = Pooled Cilnidipine 10 mg and Cilnidipine 10 mg + Tadalafil 5 mg, Excluding Outliers, Baseline RCS stratum 2 (lower half of table)
# [8] = Pooled Cilnidipine 10 mg and Cilnidipine 10 mg + Tadalafil 5 mg, n=3, excluding outliers, last 7 days of dosing
# [9] = Pooled Cilnidipine 10 mg and Cilnidipine 10 mg + Tadalafil 5 mg, n=3, last 7 days of dosing
# [10] = Pooled Cilnidipine 20 mg and Cilnidipine 20 mg + Tadalafil 5 mg, Baseline RCS stratum 1 (upper half of table)
# [11] = Pooled Cilnidipine 20 mg and Cilnidipine 20 mg + Tadalafil 5 mg, Excluding Outliers, Baseline RCS stratum 1 (upper half of table)
# [12] = Pooled Cilnidipine 20 mg and Cilnidipine 20 mg + Tadalafil 5 mg, Excluding Outliers, Baseline RCS stratum 2 (lower half of table)
# [13] = Pooled Cilnidipine 20 mg and Cilnidipine 20 mg + Tadalafil 5 mg, n=4, excluding outliers, last 7 days of dosing
# [14] = Pooled Cilnidipine 20 mg and Cilnidipine 20 mg + Tadalafil 5 mg, n=4, last 7 days of dosing
# [15] = Pooled Cilnidipine arms, n=3, excluding outliers, last 7 days of dosing
# [16] = Pooled Cilnidipine arms, n=3, last 7 days of dosing
# [17] = Pooled Cilnidipine, Baseline RCS stratum 1 (upper half of table)
smiles,measurement,setting,value
COCCOC(=O)C1=C(C)NC(C)=C(C(=O)OC/C=C/c2ccccc2)C1c1cccc([N+](=O)[O-])c1 (stereo not drawn) [Cilnidipine],"Weekly RP Attacks (All Attacks) Change from Baseline, Mean",[1],−9.00
same,"Weekly RP Attacks (All Attacks) Change from Baseline, Median",[1],−9.00
same,"Weekly RP Attacks (All Attacks) Percent Change from Baseline, Mean",[1],−28.13%
same,"Weekly RP Attacks (All Attacks) Percent Change from Baseline, Median",[1],−28.13%
same,"Weekly RP Attacks (All Attacks), Mean",[1],23.00
same,"Weekly RP Attacks (All Attacks), Median",[1],23.00
same,"Weekly RP Attacks (All Attacks) Change from Baseline, Mean",[2],−9.00
same,"Weekly RP Attacks (All Attacks) Change from Baseline, Median",[2],−9.00
same,"Weekly RP Attacks (All Attacks) Percent Change from Baseline, Mean",[2],−28.13%
same,"Weekly RP Attacks (All Attacks) Percent Change from Baseline, Median",[2],−28.13%
same,"Weekly RP Attacks (All Attacks), Mean",[2],23.00
same,"Weekly RP Attacks (All Attacks), Median",[2],23.00
same,Weekly attack frequency (change),Cilnidipine 20 mg (n = 3),−43%
same,"Weekly RP Attacks (All Attacks) Change from Baseline, Mean",[3],−6.67
same,"Weekly RP Attacks (All Attacks) Change from Baseline, Median",[3],−6.67
same,"Weekly RP Attacks (All Attacks) Percent Change from Baseline, Mean",[3],−45.71%
same,"Weekly RP Attacks (All Attacks) Percent Change from Baseline, Median",[3],−45.71%
same,"Weekly RP Attacks (All Attacks), Mean",[3],8.00
same,"Weekly RP Attacks (All Attacks), Median",[3],8.00
same,"Weekly RP Attacks (All Attacks) Change from Baseline, Mean",[4],−6.67
same,"Weekly RP Attacks (All Attacks) Change from Baseline, Median",[4],−6.67
same,"Weekly RP Attacks (All Attacks) Percent Change from Baseline, Mean",[4],−45.71%
same,"Weekly RP Attacks (All Attacks) Percent Change from Baseline, Median",[4],−45.71%
same,"Weekly RP Attacks (All Attacks), Mean",[4],8.00
same,"Weekly RP Attacks (All Attacks), Median",[4],8.00
same,"Weekly RP Attacks (All Attacks) Change from Baseline, Median",[5],−5.00
same,"Weekly RP Attacks (All Attacks), Median",[5],6.00
same,"Weekly RP Attacks (All Attacks) Change from Baseline, Mean",[6],−6.50
same,"Weekly RP Attacks (All Attacks) Change from Baseline, Median",[6],−6.50
same,"Weekly RP Attacks (All Attacks) Percent Change from Baseline, Mean",[6],−36.28%
same,"Weekly RP Attacks (All Attacks) Percent Change from Baseline, Median",[6],−36.28%
same,"Weekly RP Attacks (All Attacks), Mean",[6],14.00
same,"Weekly RP Attacks (All Attacks), Median",[6],14.00
same,"Weekly RP Attacks (All Attacks) Change from Baseline, Mean",[7],−5.00
same,"Weekly RP Attacks (All Attacks) Change from Baseline, Median",[7],−5.00
same,"Weekly RP Attacks (All Attacks) Percent Change from Baseline, Mean",[7],−45.45%
same,"Weekly RP Attacks (All Attacks) Percent Change from Baseline, Median",[7],−45.45%
same,"Weekly RP Attacks (All Attacks), Mean",[7],6.00
same,"Weekly RP Attacks (All Attacks), Median",[7],6.00
same,"Weekly RP Attacks (All Attacks) Change from Baseline, Mean",[8],−6.00
same,"Weekly RP Attacks (All Attacks) Change from Baseline, Median",[8],−5.00
same,"Weekly RP Attacks (All Attacks) Percent Change from Baseline, Mean",[8],−39.34%
same,"Weekly RP Attacks (All Attacks) Percent Change from Baseline, Median",[8],−44.44%
same,"Weekly RP Attacks (All Attacks), Mean",[8],11.33
same,"Weekly RP Attacks (All Attacks), Median",[8],6.00
same,"Weekly RP Attacks (All Attacks) Change from Baseline, Mean",[9],−6.00
same,"Weekly RP Attacks (All Attacks) Change from Baseline, Median",[9],−5.00
same,"Weekly RP Attacks (All Attacks) Percent Change from Baseline, Mean",[9],−39.34%
same,"Weekly RP Attacks (All Attacks) Percent Change from Baseline, Median",[9],−44.44%
same,"Weekly RP Attacks (All Attacks), Mean",[9],11.33
same,"Weekly RP Attacks (All Attacks), Median",[9],6.00
same,"Weekly RP Attacks (All Attacks) Percent Change from Baseline, Median",[10],−45.00%
same,"Weekly RP Attacks (All Attacks), Median",[10],11.00
same,"Weekly RP Attacks (All Attacks), Median","Pooled Cilnidipine 20 mg and Cilnidipine 20 mg + Tadalafil 5 mg, Baseline RCS stratum 2 (lower half of table)",11.00
same,"Weekly RP Attacks (All Attacks) Change from Baseline, Mean",[11],−5.78
same,"Weekly RP Attacks (All Attacks) Percent Change from Baseline, Mean",[11],−37.49%
same,"Weekly RP Attacks (All Attacks) Percent Change from Baseline, Median",[11],−45.00%
same,"Weekly RP Attacks (All Attacks), Mean",[11],10.33
same,"Weekly RP Attacks (All Attacks), Median",[11],11.00
same,"Weekly RP Attacks (All Attacks) Change from Baseline, Mean",[12],−1.83
same,"Weekly RP Attacks (All Attacks) Change from Baseline, Median",[12],−1.83
same,"Weekly RP Attacks (All Attacks) Percent Change from Baseline, Mean",[12],−14.29%
same,"Weekly RP Attacks (All Attacks) Percent Change from Baseline, Median",[12],−14.29%
same,"Weekly RP Attacks (All Attacks), Mean",[12],11.00
same,"Weekly RP Attacks (All Attacks), Median",[12],11.00
same,"Weekly RP Attacks (All Attacks) Change from Baseline, Mean",[13],−4.79
same,"Weekly RP Attacks (All Attacks) Change from Baseline, Median",[13],−4.17
same,"Weekly RP Attacks (All Attacks) Percent Change from Baseline, Mean",[13],−31.69%
same,"Weekly RP Attacks (All Attacks) Percent Change from Baseline, Median",[13],−33.03%
same,"Weekly RP Attacks (All Attacks), Mean",[13],10.50
same,"Weekly RP Attacks (All Attacks), Median",[13],11.00
same,"Weekly RP Attacks (All Attacks) Change from Baseline, Mean",[14],−4.79
same,"Weekly RP Attacks (All Attacks) Change from Baseline, Median",[14],−4.17
same,"Weekly RP Attacks (All Attacks) Percent Change from Baseline, Mean",[14],−31.69%
same,"Weekly RP Attacks (All Attacks) Percent Change from Baseline, Median",[14],−33.03%
same,"Weekly RP Attacks (All Attacks), Mean",[14],10.50
same,"Weekly RP Attacks (All Attacks), Median",[14],11.00
same,Weekly attack frequency (change),Pooled Cilnidipine (n = 7),−41%
same,"Weekly RP Attacks (All Attacks) Change from Baseline, Mean",[15],−7.44
same,"Weekly RP Attacks (All Attacks) Change from Baseline, Median",[15],−9.00
same,"Weekly RP Attacks (All Attacks) Percent Change from Baseline, Mean",[15],−39.85%
same,"Weekly RP Attacks (All Attacks) Percent Change from Baseline, Median",[15],−45.00%
same,"Weekly RP Attacks (All Attacks), Mean",[15],13.00
same,"Weekly RP Attacks (All Attacks), Median",[15],11.00
same,"Weekly RP Attacks (All Attacks) Change from Baseline, Median",[16],−9.00
same,"Weekly RP Attacks (All Attacks) Percent Change from Baseline, Median",[16],−45.00%
same,"Weekly RP Attacks (All Attacks), Mean",[16],13.00
same,"Weekly RP Attacks (All Attacks), Median",[16],11.00
same,"Weekly RP Attacks (All Attacks) Change from Baseline, Mean",[17],−7.44
same,"Weekly RP Attacks (All Attacks) Change from Baseline, Median",[17],−9.00
